{
  "source": "patent US20100323984A1",
  "about": "“COSMETIC ORAL AND/OR PARENTERAL USE OF GLUCOSAMINE OPTIONALLY IN COMBINATION WITH AT LEAST ONE POLYPHENOL COMPOUND, AND CORRESPONDING COMPOSITION” (LABORATOIRES INNEOV, priority 2006, published 2010)",
  "key": {"Fibromodulin": {"system": "Fibromodulin", "assay": "Example 4 clinical study, skin biopsy mRNA by RT-PCR: fibromodulin", "assay_type": "in vivo, human", "conditions": "oral, equivalent to 250 mg of glucosamine, 8 weeks, women aged 50 to 65, n=8; placebo 1.12 ± 0.16", "protocol": "(§1) Restrictive randomized monocentric double-blind study versus placebo. Fifteen women, aged 50 to 65, were given, as a supplement, for 8 weeks, either a placebo (n=7) or glucosamine sulfate (n=8) equivalent to 250 mg of glucosamine (GLU).\n(§2) A skin biopsy 3 mm in diameter (inner face of the arm) was taken before the beginning (T0) and at the end of the 8 weeks of supplementation (T8).\n(§3) The total RNA contained in the skin samples was extracted and purified by means of an Ambion Ribo Pure Kit.\n(§4) The analysis of the specific dermal markers was carried out by RT-PCR as previously described (Nusgens et al, JID, 116: 853-859, 2001). All the results are expressed in arbitrary units relative to the amount of 28S rRNA.\n(§5) The effects of the supplementation (placebo or GLU) were then analyzed by comparing, for each volunteer, the individual expression of the mRNAs at T8 and at T0. A […] ratio was thus calculated. The means of each ratio of the two groups were compared using a Student's test for paired samples."}, "Human fibroblasts": {"system": "Human fibroblasts", "assay": "Cytotoxicity on fibroblasts (number of cells by DNA fluorimetry)", "assay_type": "cell-based", "conditions": "for DNA (number of cells): 48 h, control 2.37 ± 0.33", "protocol": "(§6) Human fibroblasts, harvested by growth from skin explants from a normal young donor, are routinely cultured in DMEM containing 10% of fetal bovine serum (FCS), ascorbic acid (50 μg/ml), penicillin-streptomycin (100 U/ml), referred to in the rest of the report as DMEM-FCS. They are amplified in culture by trypsinizing subconfluent cultures and dividing the dishes 1 in 3. The cultures are used up until passage 14. They are regularly tested for the absence of mycoplasma.\n(§7) The glucosamine sulfate is provided in the form of (C6H14NO5)2 S04.2KCl (glucosamine.SO4 titer: 74%) brand Bioiberica, code F0379, Batch 4/0001. A stock solution at 13.6 mg/ml of distilled water is sterilized by filtration through an Acrodisc, and conserved at −20° C.\nThe fibroblasts are seeded into 24-well multiwells at 25 or 50×10^3 cells/well in DMEM-FCS. After 6 h of attachment, 20 μl of gradual dilutions of the active agents to be tested are added to the cultures. After 24 h of contact, the medium and the active agents are renewed. After 48 h of culture, the medium is removed, and the cell layers are rinsed twice with physiological saline. The number of cells is determined by measuring DNA by the fluorimetric technique using the bisbenzimide reagent in a “Gemini” fluorimeter. The cultures are prepared in triplicate and the measurements are carried out on each culture in duplicate. The control cultures receive the solvent alone.\nThe toxicity of glucosamine sulfate is tested at 0.5, 1, 5, 10, 20 and 40× the plasma concentration, i.e. 3.4, 6.8, 34, 68, 136 and 272 μg/ml of culture medium."}, "MMP3": {"system": "MMP3", "assay": "MMP3 mRNA by RT-PCR, human dermal fibroblasts in a monolayer on plastic", "assay_type": "cell-based", "conditions": "for MMP3 mRNA: control 1745 ± 31", "protocol": "as §6, §7\nThe fibroblasts are seeded in DMEM-FCS in a proportion of 2.10^5 cells/disk of 6 cm. After 18 h of attachment, the culture medium is renewed with DMEM-FCS containing:\na) glucosamine sulfate alone • [plasma concentration] 2×(n=2) • 5× (n=2) • 10× (n=2) • control (n=3)\nThe total amount of RNA present in the solution that will be used to carry out the specific mRNA measurements is determined by measuring the 28S ribosomal RNA. The RNA solution is aliquoted and frozen at −80° C. until the specific mRNAs are assayed by RT-PCR. The mRNA results are expressed in arbitrary units (AU) per unit of 28S. The measurements are carried out in triplicate on two or three separate cultures. • MMP3: stromelysin 1 responsible for the degradation of proteoglycans and of other extracellular matrix constituents and activator of MMP 1"}, "Decorin": {"system": "Decorin", "assay": "Example 4 clinical study, skin biopsy mRNA by RT-PCR: decorin", "assay_type": "in vivo, human", "conditions": "oral, equivalent to 250 mg of glucosamine, 8 weeks, women aged 50 to 65, n=8; placebo 1.11 ± 0.22", "protocol": "as §1, §2, §3, §4, §5"}, "Biglycan": {"system": "Biglycan", "assay": "Example 4 clinical study, skin biopsy mRNA by RT-PCR: biglycan", "assay_type": "in vivo, human", "conditions": "oral, equivalent to 250 mg of glucosamine, 8 weeks, women aged 50 to 65, n=8; placebo 1.10 ± 0.18", "protocol": "as §1, §2, §3, §4, §5"}, "Vimentin": {"system": "Vimentin", "assay": "Example 4 clinical study, skin biopsy mRNA by RT-PCR: vimentin", "assay_type": "in vivo, human", "conditions": "oral, equivalent to 250 mg of glucosamine, 8 weeks, women aged 50 to 65, n=8; placebo 1.27 ± 0.33", "protocol": "as §1, §2, §3, §4, §5"}, "fibroblasts": {"system": "fibroblasts", "assay": "Retracting collagen gel (contractile properties of fibroblasts)", "assay_type": "cell-based, human", "protocol": "Human fibroblasts, harvested by growth from skin explants from a normal young donor, are routinely cultured in DMEM containing 10% of fetal bovine serum (FCS), ascorbic acid (50 μg/ml), penicillin-streptomycin (100 U/ml), referred to in the rest of the report as DMEM-FCS. They are amplified in culture by trypsinizing subconfluent cultures and dividing the dishes 1 in 3. The cultures are used up until passage 14. They are regularly tested for the absence of mycoplasma. A sterile solution of purified native collagen is mixed with a suspension of fibroblasts, DMEM-FCS medium and the test products in bacteriological dishes. The mixture is brought to 37° C., this resulting in polymerization of the collagen and the formation of a three-dimensional collagen gel trapping the fibroblasts and floating in the culture medium. The cells attached to the collagen fibers and, under the contractile activity of the cytoskeleton of the fibroblasts, the gel is gradually retracted. This gel is commonly referred to as “Retracting Collagen Gel” or RCG. […]"}, "Hyaluron synthase": {"system": "Hyaluron synthase", "assay": "Example 4 clinical study, skin biopsy mRNA by RT-PCR: hyaluron synthase", "assay_type": "in vivo, human", "conditions": "oral, equivalent to 250 mg of glucosamine, 8 weeks, women aged 50 to 65, n=8; placebo 1.51 ± 0.73", "protocol": "as §1, §2, §3, §4, §5"}, "[1]": {"system": "CD44 hyaluronic acid receptor", "assay": "Immunohistochemical demonstration of the hyaluronic acid receptor (CD44) in human skin explants kept alive", "assay_type": "cell-based", "conditions": "glucosamine 5 μM in culture medium, D4, scores 0 to 4, control skin 3.4 ± 0.7", "protocol": "For this, a method of culturing was used which allows human skin to be kept alive under metabolic conditions close to in vivo (individuals aged between 50 and 60).\nThe glucosamine in aqueous solution was added to the culture medium, at the plasma concentration (5 μM), thus making it possible to simulate oral and/or parenteral administration.\nSkin fragments were obtained after plastic surgery (mammary or abdominal plasties) from menopausal women (8 different donors from female individuals aged between 50 and 60). The fragments are placed in inserts which are themselves suspended above culture wells. Culture medium is added to the bottom of the wells, the medium passing by slow diffusion between the two compartments by means of a porous membrane (12 μm).\nFrom D0 to D10, glucosamine was added to the culture medium of the skin fragments, every day. For the CD44 analysis, a series of skin samples was taken at D4. A second series was taken at D10 for assaying the collagen synthesis.\nThe immunodetection was carried out using the CSA kit (DAKO) and visualized in red with AEC (3-amino-9-ethylcarbazole).\nSemi-quantitative scores made it possible to specify the intensity of the immunolabeling (scores 0 to 4, from negative to intense). […]"}},
  "note": "Structures can show the parent of a compound that is named as a salt.",
  "data": [
    {"smiles": "N[C@@H](C=O)[C@@H](O)[C@H](O)[C@H](O)CO", "note": "[glucosamine sulfate]", "values": [
      {"measurement": "Fibromodulin mRNA (T8/T0)", "setting": "Fibromodulin", "value": "significantly increases"},
      {"measurement": "number of cells (rate of proliferation of the fibroblasts)", "setting": "Human fibroblasts; 34 μg/ml, p=0.04", "value": "increase in the number of cells"},
      {"measurement": "DNA (number of cells)", "setting": "Human fibroblasts; 0.5x plasma concentration, 3.4 μg/ml", "value": "2.81 ± 0.41", "unit": "µg/mL"},
      {"measurement": "DNA (number of cells)", "setting": "Human fibroblasts; 1x plasma concentration, 6.8 μg/ml", "value": "2.56 ± 0.37", "unit": "µg/mL"},
      {"measurement": "DNA (number of cells)", "setting": "Human fibroblasts; 5x plasma concentration, 34 μg/ml", "value": "2.89 ± 0.23", "unit": "µg/mL"},
      {"measurement": "DNA (number of cells)", "setting": "Human fibroblasts; 10x plasma concentration, 68 μg/ml", "value": "2.61 ± 0.26", "unit": "µg/mL"},
      {"measurement": "DNA (number of cells)", "setting": "Human fibroblasts; 20x plasma concentration, 136 μg/ml", "value": "2.52 ± 0.18", "unit": "µg/mL"},
      {"measurement": "DNA (number of cells)", "setting": "Human fibroblasts; 40x plasma concentration, 272 μg/ml", "value": "2.50 ± 0.32", "unit": "µg/mL"},
      {"measurement": "cytotoxic effect", "setting": "Human fibroblasts; even at concentrations representing 40× the plasma concentration", "value": "No cytotoxic effect"},
      {"measurement": "MMP3 mRNA", "setting": "MMP3; 2x plasma concentration", "value": "1261 ± 120", "unit": "UA/28S"},
      {"measurement": "level of MMP3 mRNA (in words)", "setting": "MMP3; 2x, 5x, 10x plasma concentration, p<0.005", "value": "significant reduction"},
      {"measurement": "MMP3 mRNA", "setting": "MMP3; 5x plasma concentration", "value": "1162 ± 22", "unit": "UA/28S"},
      {"measurement": "MMP3 mRNA", "setting": "MMP3; 10x plasma concentration", "value": "1060 ± 375", "unit": "UA/28S"},
      {"measurement": "Decorin mRNA (T8/T0)", "setting": "Decorin", "value": "significantly increases"},
      {"measurement": "Biglycan mRNA (T8/T0)", "setting": "Biglycan", "value": "significantly increases"},
      {"measurement": "Vimentin mRNA (T8/T0)", "setting": "Vimentin", "value": "significantly increases"},
      {"measurement": "reduction in the diameter of the collagen gel (retraction)", "setting": "fibroblasts; 2×, 5× and 10× the plasma concentration, 20 000 fibroblasts, 46 h, control 19 mm", "value": 22, "unit": "mm"},
      {"measurement": "reduction in diameter of the collagen gel", "setting": "fibroblasts; plasma concentration, 25 000 fibroblasts, 18 hours, controls 21 mm", "value": 23, "unit": "mm"},
      {"measurement": "Hyaluron synthase mRNA (T8/T0)", "setting": "Hyaluron synthase", "value": "significantly increases"},
      {"measurement": "CD44 labeling Topography score (mean semi-quantitative score)", "setting": "[1]", "value": "3.7 ± 0.5"}
    ]}
  ]
}
